# Measured values from patent publication US20230414715A1, “TRAIL COMPOUNDS FOR REDUCING CANCER TREAMENT SIDE EFFECTS” (BROWN UNIVERSITY, priority 2022, published 2023).
# Legend:
# [1] = tested on: e0771 orthotopic breast tumors in C57B1/6 mice; experiment: Orthotopic e0771 breast tumor model with 20 Gy whole-thorax irradiation
# Description: C57B1/6 female mice (Taconic) were injected with 100,000 cells of murine breast cancer (e0771) in the right second mammary fat pad on day 0 of the experiment. […] Each group (n=3) also received a single whole-thorax x-ray irradiation dose of 20 Gy with shielding of other organs. One group (n=3) received no treatment and no radiation. The long axis and short axis of the tumors were measured using calipers and recorded twice a week. On day 18 all mice were euthanized at a humane endpoint, which was defined by 20% weight loss and/or a tumor volume of 2000 mm^3 (˜10% of body weight). Organs and tumors were harvested from the mice and 600 μL of blood was collected via cardiac puncture for serum cytokine analysis. Once tumors were extracted, they were weighed and measured to determine final volume and weight. Pulse oximeter readings were taken initially before radiation treatment and before sacrifice 9 days post-radiation (MouseSTAT Jr. Pulse Oximeter, Kent Scientific). When mice were under anesthesia the sensor of the MouseSTAT Jr. was placed on the hind right paw for 30 seconds. The highest and lowest values shown by the pulse oximeter during this time were recorded and then averaged together. The mean of all the averages per treatment group was then calculated.
# serum cytokines = experiment: Serum cytokine analysis (Luminex) of irradiated mice; assay type: in vivo, mouse; conditions: treated versus control
# Description: (§1) Animal studies were carried out at Brown University facilities with approval from Brown University IACUC. C57B1/6 mice (Taconic), mice with bi-allelic loss of TRAIL Death Receptor-(DR5-/-) in a C57B1/6 background, and mice with bi-allelic loss of TRAIL (TRAIL -/-) in a C57B1/6 background were given a single whole-thorax x-ray (Philips RT250) irradiation dose of 20 Gy with shielding of other organs. 8-15-week-old male and female mice of each genotype were used. […] Treatment was continued for two weeks, where TLY012 was administered twice a week and ONC201 was administered once a week. For each genetic background, two mice received a control PO, two mice received TLY012 IP, and two mice received ONC201 PO. Mice were weighed twice a week, and 13 days post-irradiation all mice were euthanized. Organs were harvested from the mice and 600 μL of blood was collected via cardiac puncture for serum cytokine analysis. Organs were preserved in 10% formalin then embedded in paraffin and sectioned at a distance of 5 μm. […] TRAIL-/- female mice were also subjected to a survival study with a single whole-thorax radiation doses of 15 Gy or 18 Gy treated with the same regimen of TLY012 or control (n=2/radiation dose/treatment) (FIG. 3B). In order to determine the lethal dose of radiation for C57B1/6 mice, female C57B1/6 mice were treated with a single dose of whole-thorax irradiation of 25 Gy in a survival study where they were treated with either TLY012 or remained control (n=6/treatment) (FIG. 3C).
# All mouse serum samples were analyzed by a custom R&D systems Murine Premixed Multi- Analyte Kit (R&D Systems, Inc., Minneapolis, MN). The panel was run on a Luminex 200 Instrument (Luminex Corporation, Austin, TX) according to the manufacturer's instructions. Murine serum levels of Angiopoietin-2, BAFF/BLyS/TNFSF13B, CCL2/JE/MCP-1, CCL3/MIP-1 alpha, CCL4/MIP-1 beta, CCL5/RANTES, CCL7/MCP-3/MARC, CCL11/Eotaxin, CCL12/MCP-5, CCL20/MIP-3 alpha, CCL21/6Ckine, CCL22/MDC, Chitinase 3-like 1, CXCL1/GRO alpha/KC/CINC-1, CXCL10/IP-10/CRG-2, CXCL12/S DF- 1 alpha, Dkk-1, FGF basic/FGF2/bFGF, GDF-15, GM-CSF, Granzyme B, IFN-gamma, IGF-I/IGF-1, IL-1 alpha/IL-1F1, IL-1 beta/IL-1F2, IL-2, IL-3, IL-4, IL-6, IL-7, IL-10, IL-13, IL-16, IL-17/IL-17A, IL-27, IL-33 M-CSF, MMP-3, MMP-8, MMP-12, Prolactin, TWEAK/TNFSF12, VEGF, and VEGFR2/KDR/Flk-1 were measured. Analyte values were reported in picograms per milliliter (pg/mL). […] Latent TGF-β was activated in samples using 1 N HCl and samples were neutralized with 1.2 N NaOH/0.5 M HEPES. Samples were assayed immediately after neutralization.
# TRAIL-/- mice = experiment: Radiation pneumonitis after whole-thorax x-ray irradiation, H&E of lung, TRAIL-null mice; assay type: in vivo, mouse; conditions: TRAIL-/- male or female mice, 20 Gy thoracic irradiation, two weeks treatment, FIG. 2A, B
# Description: as §1, with “In order to determine the lethal dose of radiation for C57B1/6 mice, female C57B1/6 mice were treated with a single dose of whole-thorax irradiation of 25 Gy in a survival study where they were treated with either TLY012 or remained control (n=6/treatment) (FIG. 3C).” left out
# C57B1/6 mice = experiment: Radiation pneumonitis after whole-thorax x-ray irradiation, H&E of lung, wild-type mice; assay type: in vivo, mouse
# Description: However, before embarking on the planned experiment, we decided to perform a preliminary, short-term treatment feasibility experiment to ensure some mouse survival after 20 Gy of thoracic irradiation (FIG. 1B). The preliminary experiment was performed with WT and DR5-null mice that were irradiated with 20 Gy, and this was followed by either weekly doses of TIC10/ONC201 (100 mg/kg for total of two doses) or twice a week doses of TLY012 (10 mg/kg for total of four doses) for 2 weeks.
# as §1
# duodenum, liver or heart = experiment: H&E of duodenum, liver and heart of irradiated, treated mice; conditions: 20 Gy irradiated mice, 2 weeks treatment
# Description: as §1, with “In order to determine the lethal dose of radiation for C57B1/6 mice, female C57B1/6 mice were treated with a single dose of whole-thorax irradiation of 25 Gy in a survival study where they were treated with either TLY012 or remained control (n=6/treatment) (FIG. 3C).” left out
# [2] = tested on: lung tissue in irradiated C57B1/6 mice; experiment: Immunohistochemistry of irradiated lung tissue; assay type: in vivo, mouse
# Text: Paraffin embedded sections of tissue were deparaffinized in xylene and rehydrated through graded ethanol solutions to phosphate-buffered saline (PBS). Heat-induced antigen retrieval (in 0.01 M citrate buffer; pH 6.0), endogenous peroxidase blocking (3% H202), and blocking were done using a standard protocol. […] Slides were developed with diaminobenzidine substrate (Vector Laboratories SK-4100) and counterstained with hematoxylin (Richard Allen Scientific). Slides were scanned (Olympus VS200) and representative brightfield images were taken and analyzed with OlyVIA software.
# [3] = irradiated rescued versus irradiated control lung tissues
# [4] = normal or inflamed lung, treated versus irradiated control
smiles,measurement,setting,value
"Cc1ccccc1CN1C(=O)C2=C(CCN(Cc3ccccc3)C2)N2CCN=C12 [ONC201, reference compound]",effect on anti-tumor efficacy of radiation (tumor weight and volume),"[1]; 20 Gy on day 9, treatment days 9, 12, 16, sacrifice day 18, FIG. 6B, C","no evidence that ONC201, TLY012 or their combination reduced efficacy of treatment"
same,oxygen saturation (pulse oximetry),"[1]; 9 days post-radiation, versus irradiated mice without further treatment, FIG. 6D",partially rescued
same,rescue from radiation induced pneumonitis,"[1]; tumor-bearing mice, 20 Gy",more potent by TLY012 than with ONC201
same,FGF basic serum level,serum cytokines,increase
same,IGF1 serum level,serum cytokines,upregulated
same,rescue from radiation pneumonitis,TRAIL-/- mice,did not
same,protection from pneumonitis,"C57B1/6 mice; WT mice, 20 Gy thoracic irradiation, preliminary experiment, 2 weeks treatment, versus irradiated control, FIG. 1C",qualitative evidence of protection from pneumonitis
same,rescue from radiation-induced pneumonitis,"C57B1/6 mice; irradiated C57B1/6 mice, FIG. 2",could rescue mice from radiation-induced pneumonitis
same,"toxicities in duodenum, liver or heart","duodenum, liver or heart",No obvious toxicities
same,NFkB,[2]; [3],no differences
same,proliferation,[2]; [3],no differences
same,DNA double strand break marker gamma-H2AX,[2]; [4],no difference
same,T-cell infiltration (CD3-epsilon),[2]; [4],no difference
same,collagen in lungs,[2]; rescued lungs versus irradiated control,less collagen
